The values below come from ChEMBL document CHEMBL3085634, “Identification of elaiophylin derivatives from the marine-derived actinomycete Streptomyces sp. 7-145 using PCR-based screening” (2013).

As usually defined, the MIC is the lowest concentration found to suppress growth.

Holding throughout (type): functional
Experiment [1] relates to Escherichia coli. The experiment in a line: Antibacterial activity against extended spectrum beta-lactamase producing Escherichia coli 09-1 assessed as growth inhibition after 18 hrs by agar dilution method. Particulars: 09-1, 18 h.
The subject of another experiment is Morganella morganii. As to the kind of experiment: Antibacterial activity against beta-lactamase producing Morganella morganii ATCC 25830 assessed as growth inhibition after 18 hrs by agar dilution method. Conditions: ATCC 25830, 18 h.
For experiment [2], the system named is Klebsiella pneumoniae. The experiment in a line: Antibacterial activity against New Delhi metallo-beta-lactamase 1 producing Klebsiella pneumoniae ATCC BAA-2146 assessed as growth inhibition after 18 hrs by agar dilution method. Particulars: ATCC BAA-2146, 18 h. For orientation: In agar dilution the substance is mixed into plates at graded concentrations.
In experiment [3] the test system is Klebsiella pneumoniae. As to the kind of experiment: Antibacterial activity against extended spectrum beta-lactamase producing Klebsiella pneumoniae ATCC 700603 assessed as growth inhibition after 18 hrs by agar dilution method. Conditions: ATCC 700603, 18 h.
Another experiment relates to Pseudomonas aeruginosa. As to the kind of experiment: Antibacterial activity against beta-lactamase producing Pseudomonas aeruginosa ATCC 27853 assessed as growth inhibition after 18 hrs by agar dilution method. Conditions: ATCC 27853, 18 h.
Experiment [4] deals with Escherichia coli. As to the kind of experiment: Antibacterial activity against beta-lactamase producing Escherichia coli 09-20 assessed as growth inhibition after 18 hrs by agar dilution method. Conditions: 09-20, 18 h.
Experiment [5] has as its system Enterococcus faecium. As to the kind of experiment: Antibacterial activity against vancomycin-sensitive Enterococcus faecium 09-10 assessed as growth inhibition after 18 hrs by agar dilution method. Particulars: 09-10, 18 h.
Experiment [6] deals with Staphylococcus aureus. The experiment in a line: Antibacterial activity against thiostrepton-resistant Staphylococcus aureus ATCC 6538P assessed as growth inhibition after 18 hrs by agar dilution method.
Experiment [7] deals with Staphylococcus aureus. As to the kind of experiment: Antibacterial activity against methicillin-resistant Staphylococcus aureus 09-13 assessed as growth inhibition after 18 hrs by agar dilution method. Particulars: 09-13, 18 h.
For experiment [8], the system named is Staphylococcus aureus. The experiment in a line: Antibacterial activity against methicillin-resistant Staphylococcus aureus R6101 assessed as growth inhibition after 18 hrs by agar dilution method. Particulars: R6101, 18 h.
The test system of experiment [9] is Enterococcus faecalis. As to the kind of experiment: Antibacterial activity against vancomycin-resistant Enterococcus faecalis ATCC 51299 assessed as growth inhibition after 18 hrs by agar dilution method. Particulars: ATCC 51299, 18 h.
The subject of experiment [10] is Enterococcus faecalis. As to the kind of experiment: Antibacterial activity against vancomycin-sensitive Enterococcus faecalis ATCC 29212 assessed as growth inhibition after 18 hrs by agar dilution method. Conditions: ATCC 29212, 18 h.
Experiment [11] concerns Staphylococcus aureus. As to the kind of experiment: Antibacterial activity against methicillin-sensitive Staphylococcus aureus 09-6 assessed as growth inhibition after 18 hrs by agar dilution method. Particulars: 09-6, 18 h.
Experiment [12] has as its system Enterococcus faecalis. As to the kind of experiment: Antibacterial activity against vancomycin-resistant Enterococcus faecalis W4138 assessed as growth inhibition after 18 hrs by agar dilution method. Particulars: W4138, 18 h.
Another experiment has as its system Micrococcus luteus. The experiment in a line: Antibacterial activity against apramycin-resistant Micrococcus luteus ATCC 10240 assessed as growth inhibition after 18 hrs by agar dilution method. Particulars: ATCC 10240, 18 h.
In experiment [13] the test system is Enterococcus faecium. As to the kind of experiment: Antibacterial activity against vancomycin-resistant Enterococcus faecium ATCC 700221 assessed as growth inhibition after 18 hrs by agar dilution method. Particulars: ATCC 700221, 18 h.
Experiment [14] relates to Enterococcus faecalis. As to the kind of experiment: Antibacterial activity against vancomycin-resistant Enterococcus faecalis R6512 assessed as growth inhibition after 18 hrs by agar dilution method. Particulars: R6512, 18 h.
The test system of experiment [15] is Enterococcus faecalis. As to the kind of experiment: Antibacterial activity against vancomycin-sensitive Enterococcus faecalis 09-8 assessed as growth inhibition after 18 hrs by agar dilution method. Particulars: 09-8, 18 h.
The subject of experiment [16] is Staphylococcus epidermidis. The experiment in a line: Antibacterial activity against methicillin-resistant Staphylococcus epidermidis 09-3 assessed as growth inhibition after 18 hrs by agar dilution method. Conditions: 09-3, 18 h.
In experiment [17] the test system is Staphylococcus epidermidis. As to the kind of experiment: Antibacterial activity against methicillin-sensitive Staphylococcus epidermidis ATCC 12228 assessed as growth inhibition after 18 hrs by agar dilution method. Conditions: ATCC 12228, 18 h.
Experiment [18] deals with Staphylococcus aureus. The experiment in a line: Antibacterial activity against methicillin-resistant Staphylococcus aureus ATCC 33591 assessed as growth inhibition after 18 hrs by agar dilution method. Particulars: ATCC 33591, 18 h.
For experiment [19], the system named is Staphylococcus aureus. As to the kind of experiment: Antibacterial activity against methicillin-sensitive Staphylococcus aureus ATCC 29213 assessed as growth inhibition after 18 hrs by agar dilution method. Particulars: ATCC 29213, 18 h.

Each structure is given as a SMILES string. Values after ≈ are worked out from the molar mass of the structure shown. Where only a bound is given, the exact number is not on record here.

Turning to `CC[C@@H]1[C@@H](C)O[C@@](OC)([C@@H](C)[C@H](O)[C@H](C)[C@H]2OC(=O)/C=C/C=C/[C@H](C)[C@@H]([C@@H](C)[C@@H](O)[C@H](C)[C@@]3(OC)C[C@@H](O[C@H]4C[C@H](O)[C@H](O)[C@H](C)O4)[C@H](CC)[C@@H](C)O3)OC(=O)/C=C/C=C/[C@@H]2C)C[C@H]1O[C@H]1C[C@H](O)[C@H](O)[C@H](C)O1`, the MIC with Escherichia coli [1], in the experiment on Morganella morganii, with Klebsiella pneumoniae [2], with Klebsiella pneumoniae [3], with Pseudomonas aeruginosa and with Escherichia coli [4] was > 256 µg/mL throughout. Besides, the MIC in the experiment with Enterococcus faecium [5] is 32 µg/mL (≈ 30.4 µM).
As for `CC[C@H]1OC(=O)[C@H](C)[C@@H](O[C@H]2C[C@@](C)(OC)[C@@H](O)[C@H](C)O2)[C@H](C)[C@@H](O[C@@H]2O[C@H](C)C[C@H](N(C)C)[C@H]2O)[C@](C)(O)C[C@@H](C)CN(C)[C@H](C)[C@@H](O)[C@]1(C)O` [AZITHROMYCIN], the MIC in the experiment with Escherichia coli [1] was 64 µg/mL (≈ 85.4 µM); with Staphylococcus aureus [6], > 256 µg/mL; with Staphylococcus aureus [7] it was > 256 µg/mL; in the experiment on Staphylococcus aureus [8], > 256 µg/mL; with Morganella morganii it was 64 µg/mL (≈ 85.4 µM); in the experiment on Enterococcus faecalis [9] it was > 256 µg/mL. Further, the MIC in the experiment with Enterococcus faecalis [10] is 8 µg/mL (≈ 10.7 µM); in the experiment with Staphylococcus aureus [11], 2 µg/mL (≈ 2.67 µM); with Enterococcus faecalis [12], > 256 µg/mL; in the experiment on Klebsiella pneumoniae [2], 64 µg/mL (≈ 85.4 µM); in the experiment on Micrococcus luteus it was 2 µg/mL (≈ 2.67 µM); in the experiment on Enterococcus faecium [13] it was > 256 µg/mL. The MIC in the experiment on Enterococcus faecalis [14] was > 256 µg/mL; in the experiment on Enterococcus faecalis [15] it was > 256 µg/mL; with Klebsiella pneumoniae [3] it was 64 µg/mL (≈ 85.4 µM); in experiment [16], > 256 µg/mL; in the experiment with Pseudomonas aeruginosa, 256 µg/mL (≈ 342 µM); in experiment [17], > 256 µg/mL. Further, the MIC in the experiment on Escherichia coli [4] is > 256 µg/mL; in the experiment on Staphylococcus aureus [18], > 256 µg/mL; in the experiment on Staphylococcus aureus [19], 2 µg/mL (≈ 2.67 µM); with Enterococcus faecium [5], > 256 µg/mL.
For `CC[C@H]1OC(=O)[C@H](C)[C@@H](O[C@H]2C[C@@](C)(OC)[C@@H](O)[C@H](C)O2)[C@H](C)[C@@H](O[C@@H]2O[C@H](C)C[C@H](N(C)C)[C@H]2O)[C@](C)(O)C[C@@H](C)C(=O)[C@H](C)[C@@H](O)[C@]1(C)O` [ERYTHROMYCIN], the MIC in the experiment on Escherichia coli [1] is > 256 µg/mL; in the experiment with Staphylococcus aureus [7] it was > 256 µg/mL; in the experiment with Morganella morganii, > 256 µg/mL; with Enterococcus faecalis [9], 8 µg/mL (≈ 10.9 µM); in the experiment on Enterococcus faecalis [10], 16 µg/mL (≈ 21.8 µM); with Staphylococcus aureus [11], 0.25 µg/mL (≈ 0.341 µM). The MIC with Klebsiella pneumoniae [2] was > 256 µg/mL; with Enterococcus faecium [13] it was 64 µg/mL (≈ 87.2 µM); with Enterococcus faecalis [15] it was 32 µg/mL (≈ 43.6 µM); in the experiment with Klebsiella pneumoniae [3] it was > 256 µg/mL; in [16], > 256 µg/mL; in the experiment on Pseudomonas aeruginosa, > 256 µg/mL. Also, the MIC was 16 µg/mL (≈ 21.8 µM) in experiment [17]; > 256 µg/mL in the experiment with Escherichia coli [4]; 256 µg/mL (≈ 349 µM) with Staphylococcus aureus [18]; 0.25 µg/mL (≈ 0.341 µM) in the experiment on Staphylococcus aureus [19]; > 256 µg/mL in the experiment on Enterococcus faecium [5].
In the case of `Cc1onc(-c2ccccc2)c1C(=O)N[C@@H]1C(=O)N2[C@@H]1SC(C)(C)[C@@H]2C(=O)O` [OXACILLIN], the MIC is > 256 µg/mL in the experiment on Escherichia coli [1]; > 256 µg/mL with Staphylococcus aureus [7]; > 256 µg/mL in the experiment with Staphylococcus aureus [8]; 256 µg/mL (≈ 638 µM) in the experiment with Morganella morganii; > 256 µg/mL in the experiment with Enterococcus faecalis [9]; 4 µg/mL (≈ 9.96 µM) in the experiment on Enterococcus faecalis [10]. Also, the MIC in the experiment on Staphylococcus aureus [11] was 0.5 µg/mL (≈ 1.25 µM); in the experiment on Klebsiella pneumoniae [2], > 256 µg/mL; with Enterococcus faecium [13] it was > 256 µg/mL; with Enterococcus faecalis [15], > 256 µg/mL; in the experiment on Klebsiella pneumoniae [3], > 256 µg/mL; in experiment [16], > 256 µg/mL. Further, the MIC was > 256 µg/mL in the experiment with Pseudomonas aeruginosa; > 256 µg/mL in [17]; > 256 µg/mL with Escherichia coli [4]; > 256 µg/mL in the experiment with Staphylococcus aureus [18]; 0.5 µg/mL (≈ 1.25 µM) in the experiment with Staphylococcus aureus [19]; > 256 µg/mL in the experiment with Enterococcus faecium [5].
